In PubChem BioAssay (NCI):
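Grown in 96-well plates, cells were treated for 48 hours with each compound at five concentrations. Insufficient inhibition: endpoint recorded as highest concentration tested. TGI: concentration producing complete growth inhibition.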

Assays:
Experiment in all cases: NCI tumour cell line growth inhibition, 48 h
A549 NSCLC = test system: A549 NSCLC
ACHN renal = test system: ACHN renal
CCRF-CEM leukemia = test system: CCRF-CEM leukemia
HCT-116 colon = test system: HCT-116 colon
HOP-62 NSCLC = test system: HOP-62 NSCLC
K-562 leukemia = test system: K-562 leukemia
MCF7 breast = test system: MCF7 breast
MDA-MB-231 breast = test system: MDA-MB-231 breast
NCI-H23 lung = test system: NCI-H23 lung
OVCAR-5 ovarian = test system: OVCAR-5 ovarian
SK-OV-3 ovarian = test system: SK-OV-3 ovarian
SNB-75 CNS = test system: SNB-75 CNS

| SMILES | TGI (A549 NSCLC) [µM] | TGI (ACHN renal) [µM] | TGI (CCRF-CEM leukemia) [µM] | TGI (HCT-116 colon) [µM] | TGI (HOP-62 NSCLC) [µM] | TGI (K-562 leukemia) [µM] | TGI (MCF7 breast) [µM] | TGI (MDA-MB-231 breast) [µM] | TGI (NCI-H23 lung) [µM] | TGI (OVCAR-5 ovarian) [µM] | TGI (SK-OV-3 ovarian) [µM] | TGI (SNB-75 CNS) [µM] |
| --- | --- | --- | --- | --- | --- | --- | --- | --- | --- | --- | --- | --- |
| C[C@]12OC[C@H](c3ccccc3)N1C(=O)C1[C@H]2CC12SCCS2 (some centres undefined) | > 100 | > 100 | > 100 | > 100 | > 100 | > 100 | > 100 | > 100 | > 100 | > 100 | > 100 | > 100 |
| Cc1cccc(N2C(=O)C3ON(C(C(N)=O)c4ccccc4)C(c4c5ccccc5c(Cl)c5ccccc45)C3C2=O)c1C (centres undefined) | 48.5 | 19.7 | > 50 | 3.84 | 24.4 | > 50 | 17.9 | 18.1 | 32.1 | 20.7 | > 50 | 19.4 |
